Source: US8980226B2, “Aerosolized fosfomycin/aminoglycoside combination for the treatment of bacterial respiratory infections” (Gilead Sciences, Inc., priority 2004, dated 2015)
Read-outs that look alike come from different tables or passages of the source.

Columns and labels:
Assay type in all cases: cell-based
[1] = system: 100 P. aeruginosa strains isolated from lung sputum samples from cystic fibrosis patients; assay: MIC50 and MIC90 for 100 P. aeruginosa strains, CF mucin binding model (+mucin); conditions: Pseudomonas aeruginosa; for MIC90: read-out: MIC90 Mucin (+)
Procedure: The MICs of fosfomycin alone, tobramycin alone, or combinations of fosfomycin plus tobramycin were determined by the agar-plate dilution method according to NCCLS guidelines (NCCLS, 2003). Bacterial strains were streaked onto Trypic Soy Agar plates (PML Microbiologicals, Wilsonville, Oreg.) containing 5% defibrinated sheep blood (hereafter referred to as blood agar plates) and incubated overnight at 35° C. Two to three bacterial colonies from the overnight cultures were inoculated into 3 mL of sterile normal saline, vortexed briefly, and adjusted to a 0.5 McFarland standard (NCCLS, 2003). The bacterial suspension was diluted 1:40 in sterile normal saline and served as the inoculum. Mueller-Hinton agar plates (hereafter referred to as MHA) were prepared by combining 16 g of agarose (Becton-Dickinson, Sparks, Md.), 22 g of Mueller-Hinton broth powder (Becton-Dickinson, Sparks, Md.), and adjusted to 1 L with distilled water. The agar was sterilized by autoclaving, cooled to 55° C., and supplemented with 25 μg/mL of glucose-6-phosphate (Sigma-Aldrich, St. Louis, Mo.). Twenty-five mL of cooled agar was aliquoted into 50 mL conical tubes and supplemented with appropriate concentrations of antibiotic to achieve concentrations ranging from 0.06 μg/mL to 512 μg/mL. After gently mixing the agar and antibiotic, the suspension was poured into sterile 100 mm petri dishes and allowed to solidify at room temperature. The antibiotic agar plates were inoculated with approximately 2×10^4 CFU/spot with a 48-point inoculator (Sigma-Aldrich, St. Louis, Mo.). The MIC was defined as the lowest concentration of antibiotic (s) that prevented visible growth after incubation for 18-20 hours at 35° C. The efficacy of a particular antibiotic or antibiotic combination on large populations of P. aeruginosa was determined by calculating the MIC50 and MIC90 values. The MIC50 value was defined as the concentration of antibiotic(s) which inhibited 50% of the P. aeruginosa strains. The MIC90 value was defined as the concentration of antibiotic(s) which inhibited 90% of the P. aeruginosa strains (Wiedemann and Grimm, 1996).
The MICs of fosfomycin alone, tobramycin alone, or combinations of fosfomycin plus tobramycin were determined for P. aeruginosa strains in the presence of porcine gastric mucin to evaluate the effect of mucin and protein binding on antibiotic activity. Methodologies were identical to that described in Example 5, Method A, with the exception that 2% (weight/volume) porcine gastric mucin (Sigma Chemical Co., St. Louis, Mo.) was added to the MHA prior to autoclaving.

[2] = system: E. coli ATCC 25922; assay: MBC/MIC, broth microdilution
Procedure: (§1) “Minimal bactericidal concentration (MBC)” means the lowest concentration of antibiotic that results in ≧3 Log10 of bacterial killing.
(§2) The MICs of amikacin, arbekacin, dibekacin, gentamicin, kanamycin, netilimicin, neomycin, streptomycin, and tobramycin alone were determined for P. aeruginosa ATCC 27853 by the broth-microdilution method according to NCCLS standards (NCCLS, 2003). E. coli ATCC 25922 and S. aureus ATCC 29213 were used as quality control stains. Bacterial strains were streaked onto blood agar plates, and incubated at 35° C. for 18 hours. Two to three bacterial colonies from the overnight cultures were inoculated into 3 mL of sterile normal saline, vortexed briefly, and adjusted to a 0.5 McFarland standard (NCCLS, 2003). The bacterial suspension was diluted 1:100 in cation-adjusted Mueller-Hinton broth (hereafter referred to as CAMHB). Fifty microliters of bacterial inoculum (approximately 2×10^5 CFU/mL) was pipeted into individual wells of 96-well plates containing 50 μl of CAMHB (Remel, Lenexa, Kanas) supplemented with 2-fold dilutions of antibiotics ranging in concentration from 0.125 μg/mL to 128 μg/mL. The MIC was defined as the lowest concentration of antibiotic (s) that prevented visible growth after incubation at 35° C. for 18-24 hours.
(§3) The MBCs of fosfomycin, amikacin, arbekacin, dibikacin, gentamicin, kanamycin B, netilimicin, neomycin, streptomycin, or tobramycin alone for P. aeruginosa ATCC 27853, E. coli ATCC 25922, and S. aureus ATCC 29213 were determined by the broth microdilution method according to NCCLS standards (NCCLS, 1999). Bacterial strains were streaked onto blood agar plates and incubated at 35° C. for 18-24 hours. Two to three bacterial colonies from the overnight cultures were inoculated into 3 mL of sterile normal saline, vortexed briefly, and adjusted to a 0.5 McFarland standard (NCCLS, 2003). Fifty microliters of bacterial inoculum (approximately 2×10^5 CFU/mL) was pipeted into individual wells of 96-well plates containing 50 μl of CAMHB (Remel, Lenexa, Kanas) supplemented with 2-fold dilutions of antibiotics ranging in concentration from 0.125 μg/mL to 128 μg/mL. Plates were incubated at 35° C. for 18-24 hours and MIC determined as described in Example 5, Method C. The contents of wells showing no growth (MIC and above) were mixed with a pipetor and duplicate 10 μl samples spread onto blood agar plates. Culture plates were incubated at 35° C. for 18-24 hours and the number of bacterial colonies on each plate enumerated manually. Rejection values were determined by NCCLS methods which considers the final inoculum size, single or double sampling, pipetting error, and the Poisson distribution of sample responses (NCCLS, 1999). […] The MBC was defined as the ≧3 Log10 decrease in CFU/mL of the original inoculum as described by NCCLS standards (NCCLS, 1999). The MBC/MIC ratios were calculated by dividing the MBC by the MIC.

[3] = system: S. aureus ATCC 29213; assay: MBC/MIC, broth microdilution
Procedure: as §1, §2, §3

[4] = system: P. aeruginosa ATCC 27853; assay: MBC/MIC, broth microdilution
Procedure: as §1, §2, §3

[5] = system: P. aeruginosa ATCC 27853; assay: Time-kill kinetics in the presence of 2% porcine gastric mucin; conditions: for killing in time-kill curves / Time to reach bactericidal killing, antibiotic alone: P. aeruginosa ATCC 27853; for killing in time-kill curves: FIGS. 1-7, fosfomycin and tobramycin alone as comparators of the combination; for Time to reach bactericidal killing, antibiotic alone: single antibiotic, 32 μg/mL
Procedure: Two to three bacterial colonies were inoculated into 10 mL CAMHB and incubated at 35° C. in a shaking water bath (250 rpm) for 18-24 hours. […] The resulting culture was adjusted to a 0.5 McFarland standard (NCCLS, 2003). […] Ten milliliter aliquots were then pipeted into 50 mL conical tubes. […] The killing activity of fosfomycin plus amikacin, arbekacin, dibikacin, gentamicin, kanamycin, […], neomycin, streptomycin, or tobramycin were also compared to the killing activity of their individual components alone. […] A no drug control was run in each experiment. Cultures were incubated with antibiotic at 35° C. in a shaking (250 rpm) water bath for 24 hours. […] Culture plates were incubated at 35° C. for 18-24 hours and the number of colonies enumerated manually. The limit of detection for the colony counting method was 1 Log10). Time-kill curves were constructed by plotting the Log10 number of CFU/mL culture versus time.

[6] = 100 P. aeruginosa strains, 2% porcine gastric mucin

Structure (SMILES)	MIC90 [1]	MIC50 [1, 6]	MBC/MIC E. coli [2]	MBC/MIC S. aureus [3]	MBC/MIC P. aeruginosa [4]	MBC/MIC P. aeruginosa ([4]; listed as fosfomycin)	killing in time-kill curves [5]	Time to reach bactericidal killing, antibiotic alone [5]	MIC90 [1, 6]	MBC/MIC Aminoglycoside ([4]; aminoglycoside alone)	rank of killing activity, combinations and tobramycin alone compared ([5]; 16 ug/mL, FIGS. 8 and 9)
C[C@@H]1O[C@@H]1P(=O)(O)O [Fosfomycin]	128 µg/mL	64 µg/mL	8	1	≧8	≥ 8	bacteriostatic killing	not bactericidal	–	–	–
NC[C@H]1O[C@H](O[C@H]2[C@H](O)[C@@H](O[C@H]3O[C@H](CO)[C@@H](O)[C@H](N)[C@H]3O)[C@H](N)C[C@@H]2N)[C@H](N)C[C@@H]1O [Tobramycin]	–	16 µg/mL	1	8	1	–	bacteriostatic killing	1 h	64 µg/mL	1	most active antibiotic
